Values quoted from earlier work in patent publication US9617270B2, “Cytotoxic benzodiazepine derivatives” (priority 2012, dated 2017).

Settings: Phase I clinical evaluation

Which adverse effects noted does the source give for `C=C1C[C@H]2C=Nc3cc(OCCCOc4cc5c(cc4OC)C(=O)N4CC(=C)C[C@H]4C=N5)c(OC)cc3C(=O)N2C1` [SJG-136] here?
The adverse effects noted was “vascular leak syndrome, peripheral edema, liver toxicity and fatigue”.

What about the maximum tolerated dose of the same compound?
Its maximum tolerated dose is 45 μg/m^2.

And the “DNA damage in circulating lymphocytes” value (circulating lymphocytes)?
The value was “noted at all doses”.
